Entries after “also recorded” stand apart in the source; their conditions may differ. Like-named read-outs stand apart in the source and are kept apart here. One block for each compound: values may come before it.
How the values were obtained:
AD brain [1] = assay: Histologic staining of human AD brain sections; conditions: fluorescence microscopy
Experimental: 26: 241-242 (1973) with 1 mM 1,4-bis(3-carboxy-4-hydroxyphenylethenyl)-benzene substituted for Congo red, but the procedure was otherwise identical. Stained slides were examined using fluorescence microscopy.
(§1) The staining method was that of Stokes and Trickey, J. Clin. Pathol. 26: 241-242 (1973) with 1,4-bis(3-carboxy-4-hydroxyphenylethenyl)-benzene substituted for Congo red.

[2] = system: transgenic mouse brain [Tg(HuAPP695.SWE)2576]; assay: Histologic staining of transgenic mouse brain sections; conditions: fluorescence microscopy
Excerpt: as §1

Aβ(10-43) [3] = target: T1, Aβ(10-43) (Homo sapiens, UniProt P05067); assay: Inhibition of [^14 C]Chrysamine G binding to Aβ(10-43); conditions: for potency/affinity relative to another compound: Congo red or the series
[4] = Octanol/water partitioning; conditions: phosphate buffered saline, pH 7.4
control brain [5] = assay: Scatchard analysis of [^14 C]CG binding to control brain; set-up: species or system human
[6] = Tissue levels and metabolism of [^14 C]Chrysamine G in mice
AD brain [7] = assay: Scatchard analysis of [^14 C]CG binding to AD brain; set-up: species or system human
AD brain [8] = assay: Total [^14 C]Chrysamine G binding in AD brain homogenates
Aβ(10-43) [9] = target: T1, Aβ(10-43); assay: Scatchard analysis of Chrysamine G binding to synthetic Aβ(10-43)
PC-12 cells = assay: Protection from Aβ(25-35)-induced toxicity in PC-12 cells (MTT reduction); conditions: for protection against Aβ(25-35)-induced toxicity: 1 μM Aβ(25-35) (FIG. 14)
Aβ(10-43) [10] = target: T1, Aβ(10-43)
control brain [11] = assay: Total [^14 C]Chrysamine G binding in control brain homogenates
pancreatic islet cells = conditions: cited from earlier work
[12] = cited from earlier work
[13] = mouse; Tubis et al.; cited from earlier work
Aβ [14] = conditions: cited from earlier work
Aβ [15] = conditions: Lorenzo and Yankner; cited from earlier work

T1 sequence (P05067 681-714): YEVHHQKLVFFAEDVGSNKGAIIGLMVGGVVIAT

Compound: O=C(O)c1cc(C=Cc2ccc(C=Cc3ccc(O)c(C(=O)O)c3)cc2)ccc1O [1,4-bis(3-carboxy-4-hydroxyphenylethenyl)-benzene]
staining of human AD brain (AD brain [1]): much more intense than that observed with Chrysamine G, Congo red, or Thioflavin S; also recorded: Visible are a large number of neuritic plaques, a neurofibrillary tangle and frequent neuropil threads
staining of transgenic mouse brain [2]: intensely stained plaque

binding activity (Aβ(10-43) [3]): inactivity
Compound: O=C(O)c1cc(N=Nc2ccc(-c3ccc(N=Nc4ccc(O)c(C(=O)O)c4)cc3S(=O)(=O)O)c(S(=O)(=O)O)c2)ccc1O [2,2'-(SO3)2 CG]

loss of activity from Chrysamine G (Aβ(10-43) [3]; relative to Chrysamine G): 7 fold
Compound: O=C(O)c1cc(N=Nc2ccc(-c3ccc(N=Nc4ccc(O)c(C(=O)O)c4)c(C(=O)O)c3)cc2C(=O)O)ccc1O [3,3'-(COOH)2 CG]

potency/affinity relative to another compound (Aβ(10-43) [3]; relative to Chrysamine G): about half that of Chrysamine G
Compound: O=C(O)c1cc(N=Nc2ccc(-c3ccc(N=Nc4ccc(O)c(C(=O)O)c4)c(Br)c3)cc2Br)ccc1O [3,3'-Br2 CG]

potency/affinity relative to another compound (Aβ(10-43) [3]; relative to Chrysamine G): about half that of Chrysamine G
Compound: O=C(O)c1cc(N=Nc2ccc(-c3ccc(N=Nc4ccc(O)c(C(=O)O)c4)c(Cl)c3)cc2Cl)ccc1O [3,3'-Cl2 CG]

potency/affinity relative to another compound (Aβ(10-43) [3]; relative to Chrysamine G): about half that of Chrysamine G
logD [4]: 2.05
Compound: O=C(O)c1cc(N=Nc2ccc(-c3ccc(N=Nc4ccc(O)c(C(=O)O)c4)c(I)c3)cc2I)ccc1O [3,3'-I2 CG]

potency/affinity relative to another compound (Aβ(10-43) [3]; relative to Chrysamine G): slightly more potent than Chrysamine G
Compound: O=C(O)c1cc(N=Nc2ccc(-c3ccc(N=Nc4ccc(O)c(C(=O)O)c4)c(I)c3)cc2)ccc1O [3-ICG]

Compound: O=C(O)c1cc(F)cc(N=Nc2ccc(-c3ccc(N=Nc4cc(F)cc(C(=O)O)c4O)cc3)cc2)c1O [(5-FSA)CG]
potency/affinity relative to another compound (Aβ(10-43) [3]; relative to Chrysamine G): one-third as potent as Chrysamine G itself

Ki (Aβ(10-43) [3]): 94 ± 20 nM
potency/affinity relative to another compound (Aβ(10-43) [3]; relative to Chrysamine G): highest affinity compound in this series
Compound: O=C(O)c1c(O)ccc(N=Nc2ccc(-c3ccc(N=Nc4ccc(O)c(C(=O)O)c4O)cc3)cc2)c1O [(6-OHSA)CG]

Bmax, control brain (Table 1) (control brain [5]; n = 6): 0.576 ± .092 pmol/μg prot
Kd (control brain [5]; n = 6, read-out: KD, control brain (Table 1)): 470 ± 49 nM
Bmax (typical control sample) (control brain [5]; single typical control): 614 fmol/μg protein
Kd (control brain [5]; single typical control, read-out: KD (typical control sample)): 480 nM
Bmax, AD brain (Table 1) (AD brain [7]; n = 5): 0.784 ± .061 pmol/μg prot
Kd (AD brain [7]; n = 5, read-out: KD, AD brain (Table 1)): 390 ± 48 nM
Bmax in AD brain higher than control (AD brain [7]; p=0.09, not significant): 36%
KD in AD brain lower than control (AD brain [7]; p=0.29, not significant): 16%
Bmax (typical AD brain sample) (AD brain [7]; sample with 48 NP/×200 magnification): 790 fmol/μg protein
Kd (AD brain [7]; sample with 48 NP/×200 magnification, read-out: KD (typical AD brain sample)): 350 nM
saturable (specific) binding as share of total binding in AD brain (AD brain [8]; 20 μM unlabelled CG defines non-saturable): 60-80%
correlation (r) of [^14 C]CG binding with NPs (AD brain [8]; AD brains alone, p=0.007): 0.59
correlation (r) of [^14 C]CG binding with NFTs (AD brain [8]; AD brains alone, p=0.026): 0.50
total binding, Head of Caudate (AD brain [8]; AD, n = 7, p = 0.14): 123 ± 22 fmol/μg protein
total binding, Frontal Pole (AD brain [8]; AD, n = 10, p < 0.006): 124 ± 16 fmol/μg protein
total binding, Superior/Middle Frontal (AD brain [8]; AD, n = 11, p < 0.005): 130 ± 21 fmol/μg protein
total binding, Superior Temporal (AD brain [8]; AD, n = 11, p < 0.02): 121 ± 14 fmol/μg protein
total binding, Inferior Parietal (AD brain [8]; AD, n = 11, p < 0.03): 137 fmol/μg protein
total binding, Cerebellum (AD brain [8]; AD, n = 11, p = 0.91): 73 ± 9 fmol/μg protein
correlation (r) of CG binding with NP counts (AD brain [8]; brains with cerebrovascular amyloid, p=0.15): 0.49
correlation (r) of CG binding with NP counts (AD brain [8]; brains without amyloid angiopathy, p=0.01): 0.79
correlation (r) of [^14 C]CG binding with NFTs (AD brain [8]; controls included, p=0.001): 0.60
correlation (r) of [^14 C]CG binding with NPs (AD brain [8]; controls included, p=0.001): 0.69
energy of binding (from KD) (Aβ(10-43) [9]; KD 0.26 μM): roughly 38 KJ/mole
Bmax, lower affinity component (Aβ(10-43) [9]; less well defined): 18.7 nmoles Chrysamine G/mg Aβ(10-43)
Kd (Aβ(10-43) [9]; read-out: KD, higher affinity component (Scatchard), Aβ(10-43), two-site model): 260 nM
Kd (Aβ(10-43) [9]; read-out: KD, lower affinity component (Scatchard), less well defined): 4010 nM
Bmax, higher affinity component (Aβ(10-43) [9]; two-site model): 3.18 nmoles Chrysamine G/mg Aβ(10-43)
logD [4]: 1.78
dissociation t1/2 (Aβ(10-43) [10]): 55 ± 9.4 s
total binding, Head of Caudate (control brain [11]; n = 4): 73 ± 11 fmol/μg protein
total binding, Frontal Pole (control brain [11]; n = 6): 58 ± 8 fmol/μg protein
total binding, Cerebellum (control brain [11]; n = 8): 75 ± 13 fmol/μg protein
total binding, Inferior Parietal (control brain [11]; n = 8): 76 ± 13 fmol/μg protein
total binding, Superior Temporal (control brain [11]; n = 8): 66 ± 17 fmol/μg protein
total binding, Superior/Middle Frontal (control brain [11]; n = 8): 54 ± 10 fmol/μg protein
Compound: O=C(O)c1cc(N=Nc2ccc(-c3ccc(N=Nc4ccc(O)c(C(=O)O)c4)cc3)cc2)ccc1O [Chrysamine G, 4,4'-bis(3-carboxy-4-hydroxyphenylazo)-biphenyl]
metabolism ([6]; 60 min after i.v. injection, brain and liver): no significant metabolism; also recorded: essentially all of the radioactivity found in the brain and liver proved to be unchanged Chrysamine G
entry into brain ([6]; normal mouse brain): does get into normal mouse brain, and the brain/blood ratio is high
overlap of binding between control and AD samples (AD brain [8]; superior/middle frontal cortex): no overlap between control and any of the AD samples
protection against Aβ(25-35)-induced toxicity (PC-12 cells): protective effects at 0.1 and 1 μM
protective effect dependence (PC-12 cells; 0.01 to 10 μM Aβ(25-35) and 0.03 to 20 μM CG): protective effect which is dependent on both the concentration of Aβ(25-35) (FIG. 12) as well as the concentration of Chrysamine G
minimal effective concentration (PC-12 cells; Rattus norvegicus, PC-12, 24 h, read-out: concentration at which protective effect is evident): 0.2 µM
MTT reduction in the absence of Aβ(25-35) vs control (PC-12 cells; any of the Chrysamine G concentrations): no significant difference

Compound: Nc1c(/N=N/c2ccc(-c3ccc(/N=N/c4cc(S(=O)(=O)O)c5ccccc5c4N)cc3)cc2)cc(S(=O)(=O)O)c2ccccc12 [Congo red]
effect on amylin toxicity to pancreatic islet cells (pancreatic islet cells): inhibit pancreatic islet cell toxicity; also recorded: protect pancreatic islet cells from the toxicity caused by amylin
blood-brain barrier crossing ([12]; guinea pig, in vivo): does not cross the blood-brain barrier well
brain/kidney ratio ([12]; guinea pigs): approximately 0.07
Ki (Aβ(10-43) [3]; read-out: Ki for inhibition of [^14 C]Chrysamine G binding to Aβ(10-43), [^14 C]Chrysamine G 0.100-0.125 μM): 2800 nM
LD50 [13]: 190 mg/kg
logD [4]: -0.177
concentration for complete protection against Aβ-induced toxicity (Aβ [14]): ≤ 20 µM
concentration for protection against Aβ-induced toxicity (Aβ [14]): over 2 μM
effect on Aβ-induced neurotoxicity (Aβ [14]; in vitro): inhibits fibrillar Aβ neurotoxicity; also recorded: inhibits Aβ-induced neurotoxicity and cell degeneration in vitro
effect on aggregation of Aβ (Aβ [15]): does inhibit aggregation of Aβ

Ki (Aβ(10-43) [3]): 73000 nM
binding activity (Aβ(10-43) [3]): decrease in affinity
energy of binding (from Ki) (Aβ(10-43) [3]; Ki of 73 μM): 5.5 kcal/mol
expected energy of binding (one-half of Chrysamine G) (Aβ(10-43) [3]; predicted value): about 19 KJ/mole
Compound: O=C(O)c1cc(N=Nc2ccccc2)ccc1O [aniline derivative]

Compound: Oc1ccc(N=Nc2ccc(-c3ccc(N=Nc4ccc(O)cc4)cc3)cc2)cc1 [phenol derivative]
protection against Aβ(25-35)-induced toxicity (PC-12 cells): no protective effects, and perhaps enhanced the toxicity of Aβ
binding activity (Aβ(10-43) [3]): completely destroyed binding affinity; also recorded: does not bind to synthetic Aβ

Compound: O=C(O)c1ccccc1O [salicylic acid]
binding activity (Aβ(10-43) [3]): total lack of binding activity; also recorded: inactivity
